From patent publication US7235536B2, “Cellulose sulfate and other sulfated polysaccharides to prevent and treat papilloma virus infection and other infections” (Rush Presbyterian-St. Luke's Medical Center, priority 2000, dated 2007)

Tests used:
HPV-40 = experiment: RT-PCR ELISA for transient infection of human A431 cells, HPV-40; assay type: cell-based, human papilloma virus; settings: with virus (HPV-40)
Description: Cellulose sulfate and dextran sulfate were each prepared as a 2 mg/ml solution in 0.9% NaCl and tested for microbicidal activity using the in vitro HPV transient infection assay originally described by Smith and colleagues (Smith, L. H., C. Foster, M. E. Hitchcock, and R. Isseroff. 1993. In vitro HPV-11 infection of human foreskin. J. Invest. Dermatol. 101:292-295) with some modifications (Ludmerer, S. W., W. L. McClements, X. M. Wang, J. C. Ling, K. U. Jansen, and N. D. Christensen. 2000. HPV11 mutant virus-like parties elicit immune responses that neutralize virus and delineate a novel neutralizing domain. Virology 266:237-245). An ELISA-based read-out of Optical Density (OD) values using alkaline phosphatase cleavage of the substrate p-nitrophenyl phosphate was also used to measure HPV infection as described below.
The RT-PCR assay to detect HPV-40 infection was designed similarly for the detection of HPV-11 infection as described above.
A modification of the RT-PCR assay that incorporates an ELISA-based read-out (Boehringer-Mannheim) was also included to assess microbicidal activity. Replicate cell cultures of A431 cells were infected with an aliquot of infectious HPV virions as described above. After 4 days of culture, cells were harvested and RNA extracted. RNA was subjected to RT using downstream anti-sense (reverse) primers for HPV-11 or HPV-40 and β-actin (as a control/housekeeping cellular transcript) to initiate cDNA synthesis. The cDNA was processed through 2 sets of 30 cycles of PCR amplification using nested primers: the second set of cycles used digoxygenin (DIG)-dUTP to label the PCR products with DIG. DIG-labeled PCR products were denatured then renatured together with a biotinylated oligonucleotide specific for the targeted PCR product. Biotinylated products were detected in ELISA with plates coated with streptavidin (to capture the biotinylated target PCR product) then anti-DIG antibody and substrate. Labeled PCR products were added directly to ELISA plates, or titrated at 10-fold dilutions in duplicate for each cell culture for each virus dilution.
The microbicidal activity was assessed either as the detection of ethidium stained PCR products or as an ELISA-based read-out as described above. […] An initial experiment was conducted to test the specificity of the ELISA-based RT-PCR assay using HPV-11 and HPV-40 infection of A431 cells (Table E).

[1] = tested on: Prevotella melaminogenica; experiment: Broth method MIC; assay type: cell-based; settings: for CS MIC: Broth (study 2)
[2] = tested on: Porphyromonas asaccharolytica; experiment: Broth method MIC; assay type: cell-based; settings: for CS MIC: Broth (study 2)
Gardnerella vaginalis [3] = experiment: Broth method MIC; assay type: cell-based; settings: for CS MIC: Broth (study 2)
[4] = tested on: Peptostreptococcus magnus; experiment: Broth method MIC; assay type: cell-based; settings: for CS MIC: Broth (study 2)
[5] = tested on: Peptostreptococcus tetradius; experiment: Broth method MIC; assay type: cell-based; settings: for CS MIC: Broth (study 2)
Eubacterium lentum = experiment: Broth method MIC; assay type: cell-based; settings: for CS MIC: Broth (study 2)
Gardnerella vaginalis [6] = experiment: Agar well growth inhibition on HBT bilayer agar plates; assay type: cell-based
Description: A fresh subculture of G. Vaginalis which is bacteria frequently associated with vaginitis was obtained after overnight growth (16 hours) on a V-agar plate and suspended in sterile phosphate buffered saline (PBS; pH 7.2) to achieve a turbidity of 0.5 (McFarland standard; approximately 10^8 CFU/ml). The suspension was diluted 10 fold and applied to HBT bilayer agar plates by swabbing the entire plate. The plate was allowed to dry for 2-3 min and small wells punched in the agar, 10 mm in diameter. Samples of cellulose sulfate were dissolved at 10 mg/ml in PBS and 0.2 ml placed in the agar wells. As control, 0.2 ml PBS was placed in one of the wells. Growth inhibition was indicated by a light area around the well.
The studies were repeated using various concentrations of cellulose sulfate (ranging from 10 mg/ml to 0.125 mg/ml) and 4 different Gardnerella vaginalis strains. […] The lowest initial concentration of cellulose sulfate at which growth inhibition occurred was 0.5 mg/ml.

[7] = in vivo
Excerpt: Cellulose sulfate offers a further advantage in that irritation by a cytotoxic agent can cause lesions which may facilitate infection and the use of cellulose sulfate is not associated with such risks of infection.

sodium cellulose sulfate
Mean (SD) of O.D. reading for RT-PCR ELISA, HPV-40 probe (HPV-40; 10 μg/ml at viral pretreatment): 0.397 (0.050) O.D. | Mean (SD) of O.D. reading for RT-PCR ELISA, HPV-40 probe (HPV-40; 100 μg/ml at viral pretreatment): 0.128 (0.008) O.D. | Mean (SD) of O.D. reading for RT-PCR ELISA, HPV-40 probe (HPV-40; 1000 μg/ml at viral pretreatment): 0.037 (0.004) O.D. | growth inhibition ([1]; at the concentrations tested): Neither one of the strains of Prevotella melaminogenica were inhibited | CS MIC ([1]; rma# 5657): NI (not inhibited by 10 mg/ml (the highest concentration tested)) | CS MIC ([1]; rma# 9052): NI (not inhibited by 10 mg/ml (the highest concentration tested)) | growth inhibition ([2]; at the concentrations tested): Two strains of Porphyromonas asaccharolytica were inhibited but a third one was not | CS MIC ([2]; rma# 11656): 5000 µg/mL | CS MIC ([2]; rma# 11690): NI (not inhibited by 10 mg/ml (the highest concentration tested)) | growth inhibition (Gardnerella vaginalis [3]; both strains): inhibited | CS MIC (Gardnerella vaginalis [3]; rma# 12066): 5000 µg/mL | CS MIC (Gardnerella vaginalis [3]; rma# 12262): 5000 µg/mL | growth inhibition ([4]; all strains): inhibited | CS MIC ([4]; rma# 11598): 5000 µg/mL | CS MIC ([4]; rma# 11658): 5000 µg/mL | growth inhibition ([5]; all strains): inhibited | CS MIC ([5]; rma# 11253): 5000 µg/mL | CS MIC ([5]; rma# 11287): 5000 µg/mL | growth inhibition (Eubacterium lentum; both strains): inhibited | CS MIC (Eubacterium lentum; rma# 9420): 5000 µg/mL | CS MIC (Eubacterium lentum; rma# 11700): 10000 µg/mL | area of growth inhibition around the well, diameter (Gardnerella vaginalis [6]; 10 mg/ml in PBS, 0.2 ml in agar well): 6 mm | growth inhibition (Gardnerella vaginalis [6]; 4 different Gardnerella vaginalis strains, 10 mg/ml to 0.125 mg/ml): Dose dependent inhibition | lowest initial concentration at which growth inhibition occurred (Gardnerella vaginalis [6]; 4 different Gardnerella vaginalis strains, 10 mg/ml to 0.125 mg/ml tested): 0.5 mg/mL | tolerability versus K-Y Jelly [7]: as well as or even better than K-Y Jelly | tolerability versus nonoxynol-9 [7]: better tolerated than nonoxynol-9
